In this experiment the target is human α7 receptor (Homo sapiens, UniProt P36544). Nature of the experiment: α7 NNR flux assay (FDSS Ca assay). Type of experiment: cell-based. The following applies: positive allosteric modulation; rat GH4C1 cell line stably expressing human α7; acetylcholine 20 μM; % modulation relative to PNU-120596 set to 100%. As to the method:
In this version of the assay, the human α7 receptor is stably expressed in the rat GH4C1 cell line. The assay was used to identify positive allosteric modulators (PAMs) of the α7 receptor. Activation of the channel was measured by loading cells with the calcium-sensitive fluorescent dye Calcium-4 (Assay kit from Molecular Devices), and then measuring real-time changes in fluorescence upon treatment with test compounds.
The cell line ChanClone GH4C1-nAChRalpha7 from Genionics was seeded from frozen stock in 384-well plates in culture media 2-3 days before experiment to form an approximately 80% confluent layer on the day of experiment.
The cell culture were split into “22.5 cm×22.5 cm”-plates with approximately 100×10^3 cells/cm^2. After four days incubation in a humidified incubator at 37° C. and 5% CO2, it had grown to an 80-90% confluent layer, and the cells were harvested.
Two or three days before the experiment the cells were seeded in 384 well plates from Greiner bio-one (781946, CELLCOAT, Poly-D-Lysine, black, μClear).
The cells were seeded in 384 well plates with 30 μL/well (30000 cells/well) while stirring the cell suspension or otherwise preventing the cells from precipitating. The plates were incubated at room temperature for 30-45 minutes. The plates were placed in incubator for two days (37° C. and 5% CO2).
The loading buffer was 5% v/v Calcium-4 Kit and 2.5 mM Probenecid in assay buffer.
Culture media were removed from the cell plates and 20 μL loading buffer was added in each well. The cell plates were placed in trays and incubated 90 minutes in the incubator (37° C.). Thereafter the plates were incubated 30 minutes at room temperature, still protected from light. Now the cell plates were ready to run in the Functional Drug Screening System (FDSS) The assay buffer was HBSS with 20 mM HEPES, pH 7.4 and 3 mM CaCl2.
200 nL 10 mM compound solution in DMSO was diluted in 50 μL assay buffer. The final test concentrations in the cell plates were 20-10-5-2.5-1.25-0.625-0.312-0.156-0.078-0.039 μM. Assay buffer and 3 μM PNU-120596 were used for control:
The agonist acetylcholine was added to a final concentration of 20 μM (˜EC100). In the FDSS7000 the Ex480-Em540 was measured with 1 second intervals. The baseline was made of 5 frames before addition of test compounds, and 95 frames more were made before addition of acetylcholine. The measurement stopped 30 frames after the 2nd addition. Raw data for each well were collected as “the maximum fluorescence count” in the interval 100-131 seconds and as “the average fluorescence count” in the interval 96-100 seconds. The positive allosteric modulation in the 2nd addition was the enhancement of agonist response with test compound compared to agonist alone.
Results were calculated as % modulation of test compound compared to the reference PNU-120596 set to 100%.

Structures are written as SMILES.

By EC50 is commonly meant the concentration that produces a half-maximal response.

Chain of human α7 receptor (P36544 23-502): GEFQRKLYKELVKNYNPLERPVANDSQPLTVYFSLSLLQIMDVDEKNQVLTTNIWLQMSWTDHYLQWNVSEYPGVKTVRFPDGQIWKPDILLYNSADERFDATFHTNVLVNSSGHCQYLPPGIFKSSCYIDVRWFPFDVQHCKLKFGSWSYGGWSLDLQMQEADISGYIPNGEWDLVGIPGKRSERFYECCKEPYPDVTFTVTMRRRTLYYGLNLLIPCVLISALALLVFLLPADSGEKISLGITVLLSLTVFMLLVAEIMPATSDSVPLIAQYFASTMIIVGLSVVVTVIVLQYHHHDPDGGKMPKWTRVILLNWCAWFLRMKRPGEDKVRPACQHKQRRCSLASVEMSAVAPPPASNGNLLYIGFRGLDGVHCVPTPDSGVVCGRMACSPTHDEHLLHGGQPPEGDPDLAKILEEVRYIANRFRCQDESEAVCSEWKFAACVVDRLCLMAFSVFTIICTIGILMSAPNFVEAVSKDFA

The compound `Cc1cc2cc(CNC(=O)c3cccn3C)ccc2[nH]1` [Compound 57, 1-methyl-N-[(2-methyl-1H-indol-5-yl)methyl]pyrrole-2-carboxamide] yielded an EC50 of 3.87 µM. With `COCc1cc(C(=O)NCc2ccc3[nH]c(C)cc3c2)on1` [Compound 98, 3-(methoxymethyl)-N-[(2-methyl-1H-indol-5-yl)methyl]isoxazole-5-carboxamide] the figure was 3.5 µM; with `Cc1cc2cc([C@@H](C)NC(=O)c3cnn(CCF)c3)ccc2[nH]1` [Compound 48, 1-(2-fluoroethyl)-N-[(1R)-1-(2-methyl-1H-indol-5-yl)ethyl]pyrazole-4-carboxamide], 1.7 µM; with `Cc1cc(C(=O)N[C@H](C)c2cc3cc[nH]c3c(C)c2F)on1` [Compound 103], 0.33 µM.

`CCn1cc(C(=O)N[C@H](C)c2ccc3[nH]c(C)cc3c2)cn1` [Compound 43, 1-ethyl-N-[(1R)-1-(2-methyl-1H-indol-5-yl)ethyl]pyrazole-4-carboxamide] came in with an EC50 of 2.2 µM. Consider `Cc1cc(C(=O)NCc2ccc3[nH]c(C(F)F)cc3c2)on1` [Compound 92, N-[[2-(difluoromethyl)-1H-indol-5-yl]methyl]-3-methyl-isoxazole-5-carboxamide], for which it took 8.3 µM to reach a half-maximal effect (EC50). `Cc1cc2cc([C@@H](C)NC(=O)c3cnn(C4COC4)c3)ccc2[nH]1` [Compound 52, N-[(1R)-1-(2-methyl-1H-indol-5-yl)ethyl]-1-(oxetan-3-yl)pyrazole-4-carboxamide]: the EC50 is 5.3 µM.

As for `Cc1cc2cc(CNC(=O)c3cnn(CC(F)(F)F)c3)ccc2n1C(F)(F)F` [Compound 83, N-[[2-methyl-1-(trifluoromethyl)indol-5-yl]methyl]-1-(2,2,2-trifluromethyl)pyrazole-4-carboxamide], a half-maximal response (EC50) required 11 µM.

As to `Cc1cc2cc([C@@H](C)NC(=O)c3cc(CCF)no3)ccc2[nH]1` [Compound 113, 3-(2-fluoroethyl)-N-[(1R)-1-(2-methyl-1H-indol-5-yl)ethyl]isoxazole-5-carboxamide], the half-maximal effective concentration (EC50) came out at 0.79 µM.

With `Cc1cc(C(=O)NCc2ccc3c(c2)cc(C)n3C(F)F)on1` [Compound 64], the EC50 was found to be 9.3 µM.

With `Cc1cc2cc(CNC(=O)c3cc(CC(F)(F)F)no3)ccc2[nH]1` [Compound 79], the EC50 came out at 0.56 µM.

On to `O=C(NCc1ccc2[nH]ccc2c1)c1cc(CCF)no1` [Compound 115, 3-(2-fluoroethyl)-N-(1H-indol-5-ylmethyl)isoxazole-5-carboxamide], for which the midpoint of the response, the EC50, lay at 4.3 µM. With `Cc1cc2cc(CNC(=O)c3sc(C)nc3C)ccc2[nH]1` [Compound 2, 2,4-dimethyl-N-[(2-methyl-1H-indol-5-311)methyl]thiazole-5-carboxamide] the figure was 9.8 µM. `COCCn1cc(C(=O)N[C@H](C)c2ccc3[nH]c(C)cc3c2)cn1` [Compound 46, 1(2-methoxyethyl)-N-[(1R)-1-(2-methyl-1H-indol-5-yl)ethyl]pyrazole-4-carboxamide]: a half-maximal response (EC50) required 3.5 µM. With `Cc1cc2cc(CNC(=O)c3cc(CC(F)(F)F)no3)ccc2n1C(F)(F)F` [Compound 85, N-[[2-methyl-1-(trifluoromethyl)indol-5-yl]methyl]-3-(2,2,2-trifluoroethyl)isoxazole-5-carboxamide] the figure was 7.7 µM; with `Cc1cc2cc(CNC(=O)c3cc(C)on3)ccc2[nH]1` [Compound 8, 5-methyl-N-[(2-methyl-1H-indol-5-yl)methyl]isoxazole-3-carboxamide], 3.2 µM. As for `Cc1cc(C(=O)NCc2ccc3[nH]c(C)cc3c2)sn1` [Compound 107, 3-methyl-N-[(2-methyl-1H-indol-5-yl)methyl]isothiazole-5-carboxamide], the EC50 is 0.56 µM. With `Cc1cc2cc(CNC(=O)c3cc(=O)n(C)[nH]3)ccc2[nH]1` [Compound 32, 2-methyl-N-[(2-methyl-1H-indol-5-yl)methyl]-3-oxo-1H-pyrazole-5-carboxamide] the figure was 11 µM; with `Cc1cc2cc(CNC(=O)c3cscn3)ccc2[nH]1` [Compound 5, N-[(2-methyl-1H-indol-5-yl)methyl]thiazole-4-carboxamide], 4.4 µM; with `Cc1cc(C(=O)NCc2ccc3c(c2)cc(C)n3C(F)(F)F)on1` [Compound 84, 3-methyl-N-[[2-methyl-1-(trifluoromethyl)indol-5-yl]methyl]isoxazole-5-carboxamide], 6 µM. With `Cc1cc(C(=O)N[C@H](C)c2cc(F)c3[nH]c(C)cc3c2)on1` [Compound 111, N-[(1R)-1-(7-fluoro-2-methyl-1H-indol-5-yl)ethyl]-3-methyl-isoxazole-5-carboxamide] the figure was 1.3 µM; with `Cc1cc2cc(CNC(=O)c3cnn(C4COC4)c3)ccc2[nH]1` [Compound 49, N-[(2-methyl-1H-indol-5-yl)methyl]-1-(oxetan-3-yl)pyrazole-4-carboxamide], 6.5 µM; with `Cc1cc2cc(CNC(=O)c3oncc3C)ccc2[nH]1` [Compound 15, 4-methyl-N-[(2-methyl-1H-indol-5-yl)methyl]isoxazole-5-carboxamide], 9.6 µM.

Turning to `Cc1cc(C(=O)NC(C)c2ccc3[nH]c(C(F)(F)F)cc3c2)on1` (single isomer, unassigned) [Compound 97, 3-methyl-N-[1-[2-(trifluoromethyl)-1H-indol-5-yl]ethyl]isoxazole-5-carboxamide], the EC50 was 5.2 µM. With `Cc1cc2cc(CNC(=O)c3cnn(C(C)C)c3)ccc2[nH]1` [Compound 71, 1-isopropyl-N-[(2-methyl-1H-indol-5-yl)methyl]pyrazole-4-carboxamide] the figure was 2.9 µM; with `Cc1cc2cc(CNC(=O)c3csc(C)n3)ccc2[nH]1` [Compound 25, 2-methyl-N-[(2-methyl-1H-indol-5-yl)methyl]thiazole-4-carboxamide], 4.7 µM; with `Cc1cc2cc(CNC(=O)c3cnn(C4CCOC4)c3)ccc2[nH]1` (centres unmarked) [Compound 51, N-[(2-methyl-1H-indol-5-yl)methyl]-1-tetrahydrofuran-3-yl-pyrazole-4-carboxamide], 6.1 µM.

Compound `Cc1cc2cc(CNC(=O)c3cc(CCF)no3)ccc2[nH]1` [Compound 106, 3-(2-fluoroethyl)-N-[(2-methyl-1H-indol-5-yl)methyl]isoxazole-5-carboxamide] returned an EC50 of 1.7 µM. With `Cc1cc2cc(CNC(=O)c3cnc(C)o3)ccc2[nH]1` [Compound 50, 2-methyl-N-[(2-methyl-1H-indol-5-yl)methyl]oxazole-5-carboxamide] the figure was 8.5 µM; with `O=C(NCc1ccc2c(ccn2C(F)(F)F)c1)c1cnn(CC(F)(F)F)c1` [Compound 81, 1-(2,2,2-trifluoroethyl)-N-[[1-(trifluoromethyl)indol-5-yl]methyl]pyrazole-4-carboxamide], 6 µM. In the case of `Cc1cc(C(=O)N[C@@H](c2ccc3[nH]c(C)cc3c2)C(F)(F)F)on1` [Compound 45, 3-methyl-N-[(1S)-2,2,2-trifluoro-1-(2-methyl-1H-indol-5-yl)ethyl]isoxazole-5-carboxamide], the EC50 stood at 1.5 µM. With `Cn1c(C(F)(F)F)cc2cc(CNC(=O)c3cnn(CC(F)(F)F)c3)ccc21` [Compound 88, N-[[1-methyl-2-(trifluoromethyl)indol-5-yl]methyl]-1-(2,2,2-trifluoroethyl)pyrazole-4-carboxamide] the figure was 6.2 µM.

These data come from patent US20120252853A1, “Positive allosteric modulators of nicotinic acetylcholine receptor” (H. Lundbeck A/S, priority 2011, published 2012).
